Laboratory results from publication PMC8359193, “Summary of reference chemicals evaluated by the fish short‐term reproduction assay, OECD TG229, using Japanese Medaka, Oryzias latipes” (Journal of Applied Toxicology, 2021).
“Also recorded” adds a separate entry of the source. Read-outs that look alike come from different tables or passages of the source.

Key:
medaka Esr1 (mEsr1) [1] = biological target: T1, medaka Esr1 (mEsr1) (Oryzias latipes, UniProt P50241); test: cell-based; assay type: cell-based, Japanese medaka (Oryzias latipes)
T1 construct: expressed in transfected cells; host or cells: HEK293 (human embryonic kidney cells), transient transfection with FuGENE HD
T1 sequence (P50241 1-620): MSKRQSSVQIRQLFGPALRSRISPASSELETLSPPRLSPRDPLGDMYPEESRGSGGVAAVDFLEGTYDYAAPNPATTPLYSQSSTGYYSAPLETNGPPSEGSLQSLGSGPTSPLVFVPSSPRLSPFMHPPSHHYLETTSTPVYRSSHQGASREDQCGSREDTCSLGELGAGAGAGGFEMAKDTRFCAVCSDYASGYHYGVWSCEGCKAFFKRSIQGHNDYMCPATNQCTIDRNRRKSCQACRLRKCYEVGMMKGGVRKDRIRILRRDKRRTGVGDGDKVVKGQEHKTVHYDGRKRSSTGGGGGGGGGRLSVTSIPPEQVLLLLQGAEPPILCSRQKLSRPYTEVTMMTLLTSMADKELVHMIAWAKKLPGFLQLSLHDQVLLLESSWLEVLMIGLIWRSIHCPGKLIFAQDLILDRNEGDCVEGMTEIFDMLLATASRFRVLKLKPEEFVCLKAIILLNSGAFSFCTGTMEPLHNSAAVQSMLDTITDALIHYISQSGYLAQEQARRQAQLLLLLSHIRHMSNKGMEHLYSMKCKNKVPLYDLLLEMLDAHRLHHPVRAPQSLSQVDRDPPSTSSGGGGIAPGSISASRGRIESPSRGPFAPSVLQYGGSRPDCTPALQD
Method: (§1) To support interpretation of the biological effects observed in the FSTRA studies, in vitro RGAs using medaka Esr1 (mEsr1) and medaka ARβ (mARβ) were performed for the 16 test chemicals. In the present study, Esr1 and ARβ, which are ancestral subtypes among Esrs and ARs in Japanese medaka, were selected based on the phylogenetical analyses of Esr and AR with each receptor RGAs (Ogino et al., [2016], [2018]; Tohyama et al., [2015]).
(§2) The mEsr1 RGA consisting of agonist and antagonist assays were performed according to the methods previously reported (Katsu et al., [2010]; Lange et al., [2012]; Miyagawa et al., [2014]). Briefly, human embryonic kidney cells 293 (HEK293), precultured, were seeded in 96‐well plates at 15,000 cells/well with 200 μl of culture medium, phenol‐red‐free Dulbecco's Modified Eagle's medium (ThermoFisher Scientific K.K., Tokyo, Japan) supplemented with 2‐mM L‐glutamine and 10% charcoal/dextran‐treated fetal bovine serum (Hyclone, UT, USA), and then incubated for 24 h in 5% CO2 at 37°C. After the 24‐h incubation, 20 μl of test medium containing 40 ng of medaka Esr1/pcDNA3.1, 80 ng of ERE‐TK‐Luc, and 20 ng of pRL‐TK‐Rlu and 1.2 μL of transfection reagent FuGENE HD (Promega, WI, USA) were added into each well. The assay plates were incubated for another 4 h in order to transfect the three vectors into the HEK293 cells. After the vectors were successfully transfected, in agonist assay, 24 μl of concentrated test chemical solution was applied to the test medium in the plate wells. […] After chemical treatment for 40 h, luciferase activity of the cells was measured, and the promoter activity was calculated as firefly (Photinus pyralis)‐/sea pansy (Renilla reniformis)‐luciferase activity in each well. The luciferase activities were quantified by a chemiluminescence assay with Dual‐Luciferase Reporter Assay System (Promega) in accordance with the manufacturer's instructions, and luminescence intensity of firefly and sea pansy luciferin was measured using a luminometer, TriStar LB941 (Berthold Technology, Oak Ridge, TN, USA).
(§3) Effect concentrations, that is, EC50 (a half maximal effective concentration) in the agonist assay and IC50 (a half maximal inhibitory concentration) in the antagonist assay, were estimated by nonlinear curve fitting (e.g., three parameters logistic regression curve) using GraphPad Prism (GraphPad Software Inc., La Jolla, CA, USA).

medaka Esr1 (mEsr1) [2] = biological target: T1, medaka Esr1 (mEsr1); test: Medaka Esr1 reporter gene assay (RGA), antagonist assay with 1 nM E2, HEK293 cells; assay type: cell-based, Japanese medaka (Oryzias latipes)
Method: as §1, §2, §3

[3] = mEsr1 RGA agonist assay, ND = no significant response even at the highest assay concentration (in parentheses), read-out: Agonist assay, EC50, Medaka Esr1
[4] = mEsr1 RGA antagonist assay, 1 nM E2-mediated transactivation, ND = no significant response even at the highest assay concentration (in parentheses), read-out: Antagonist assay, IC50, Medaka Esr1

SMILES	IC50 (medaka Esr1 (mEsr1) [2]) [µM]	EC50 (medaka Esr1 (mEsr1) [1]; [3]) [µM]	also measured
Cc1cc(O)ccc1Cl [CMP, 4‐Chloro‐3‐methylphenol]	–	–	EC50 (medaka Esr1 (mEsr1) [1]; read-out: Agonist assay, EC50, Medaka Esr1, mEsr1 RGA agonist assay, ND = no significant response even at the highest assay concentration (in parentheses)): 61 µM
C[C@]12C=CC3=C4CCC(=O)C=C4CC[C@H]3[C@@H]1CC[C@@H]2O [TRB, 17β‐Trenbolone]	> 10	–	–
CC(=O)[C@H]1CC[C@H]2[C@@H]3CCC4=CC(=O)CC[C@]4(C)[C@H]3CC[C@]12C [P4, Progesterone]	> 10	–	EC50 (medaka Esr1 (mEsr1) [1]): > 10 µM
CCCCCCCCCCCCOS(=O)(=O)[O-].[Na+] [SDS, Sodium dodecyl sulfate]	–	> 100	mEsr1 agonist activity (in words) (medaka Esr1 (mEsr1) [1]; highest concentration 100 μM): could not be determined; also recorded: neithEsr agonistic nor antagonistic activity; mEsr1 antagonist activity (in words) (medaka Esr1 (mEsr1) [2]; 1 nM E2-mediated mEsr1 transactivation): no Esr inhibiting activity; also recorded: neithEsr agonistic nor antagonistic activity; IC50 (medaka Esr1 (mEsr1) [2]; [4]): > 100 µM
C[C@]12CCC(=O)C=C1CC[C@@H]1[C@@H]2CC[C@@]2(C)[C@H]1CC[C@]2(C)O [MT, 17α‐methyltestosterone]	–	–	IC50 (medaka Esr1 (mEsr1) [2]; [4]): > 10 µM
CCC(C)(C)c1ccc(O)cc1 [PTH, 4‐tert‐Pentylphenol]	–	0.97	–
C#C[C@]1(O)CC[C@H]2[C@@H]3CCc4cc(O)ccc4[C@H]3CC[C@@]21C [EE2, 17α‐Ethynylestradiol]	–	0.00088	–
CC(=O)N1CCN(c2ccc(OCC3COC(Cn4ccnc4)(c4ccc(Cl)cc4Cl)O3)cc2)CC1 (centres unmarked) [KCZ, Ketoconazole]	> 10	–	–
C#C[C@]1(O)CC[C@H]2[C@@H]3CCC4=CC(=O)CC[C@@H]4[C@H]3CC[C@@]21CC [LNG, Levonorgestrel]	> 100	1.1	–
